From US20260176277A1, “COMPOUNDS AND COMPOSITIONS AS eIF4E INHIBITORS AND USES THEREOF” (Ribometrix, Inc., priority 2022, published 2026) come the findings set out here.

The structures appear in SMILES notation.

The target of one assay is T1, human eIF4E protein (Homo sapiens, UniProt P06730).
T1 construct: purchased Novus NBP-45314
Kind of assay: Biochemical competitive binding assay (TR-FRET competition). Conditions: recombinant 6xHIS-tagged human eIF4E, EDA-m7GDP-ATTO-647N probe; read-out: hEIF4E TR-FRET IC50. The method, then:
The potencies of compounds binding to human eIF4E protein were measured using a 384-well time-resolved fluorescence resonance energy transfer (TR-FRET) competition assay. The assay was performed in assay buffer containing 50 mM HEPES pH 7.5, 100 mM KCl, 0.02% Tween-20, and 0.1 mg/mL bovine serum albumin (BSA). The reaction volume was 10 μL and each reaction contained 4 nM recombinant 6×HIS-tagged human eIF4E protein (Novus, NBP-45314), 5 nM EDA-m7GDP-ATTO-647N (Jena Bioscience, NU-827-647N), 2.5 nM Europium conjugated Anti-6×HIS antibody (PerkinElmer, AD0402) and varying concentrations of compound. The final DMSO concentration was 1%.
Compounds were prepared using 11-point, 4-fold serial dilutions in DMSO and 100 nL of diluted compounds were transferred to 384-well assay-ready plates. Recombinant human eIF4E protein at 2× final concentration (8 nM) was pre-incubated with Eu-anti-6×HIS antibody at 2× final concentration (5 nM) for 5 minutes, then 5 μL of the protein solution was added to assay-ready plates. The protein/compound mix was incubated for 15 minutes, after which 5 μL of a solution containing EDA-m7GDP-ATTO-647N probe at 2× final concentration (10 nM) was added. After a subsequent 15-minute incubation, time-resolved fluorescence of assay plates was measured using a Clariostar Plus microplate reader (BMG Labtech) and TR-FRET values were calculated by taking a ratio of the 665 to 620 wavelength signals. After normalization to the average of DMSO control and maximum inhibition control wells, concentration-response data were plotted and standard 4-parameter curve fitting (PEI Signals) was utilized to determine IC50 values.
In general terms: In TR-FRET formats the signal depends on donor and acceptor labels being close together.

Assay [1] has as its system cap-dependent translation in Flp-In-293 reporter cells. Description: Cellular cap-dependent translation inhibition dual luciferase assay (DLA). The assay is classed as cell-based. To be noted: Homo sapiens, ratio of Fluc (cap-dependent) to Rluc (IRES) luminescence, 24 hours of compound treatment.

T1 sequence (P06730 whole entry): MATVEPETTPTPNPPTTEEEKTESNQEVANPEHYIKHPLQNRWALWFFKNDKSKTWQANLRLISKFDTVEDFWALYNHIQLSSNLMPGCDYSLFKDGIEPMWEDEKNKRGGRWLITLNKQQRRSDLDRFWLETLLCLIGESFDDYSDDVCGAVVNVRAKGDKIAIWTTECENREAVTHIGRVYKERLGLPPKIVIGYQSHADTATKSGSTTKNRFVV

For orientation: IC50 means the concentration needed to halve the response being measured. In the case of `CC(=O)N1CCc2nc(C)n(CCOc3ccc(Cl)cc3-c3cccc(C(=O)O)c3)c(=O)c2C1` [Compound 7], the IC50 at human eIF4E protein lay in the range of 0.4 to 10 µM.

For `Cc1nc2c(c(=O)n1CCOc1ccc(Cl)cc1-c1ccnc(C(=O)O)c1)CN(C)CC2` [Compound 9], the figures for the IC50 (in assay [1]; on human eIF4E protein) were more than 20 µM and less than 0.4 µM, respectively. Taken in the same sequence, the figures for `Cc1cc(-c2cc(Cl)ccc2OCCn2c(C)nc3c(c2=O)CN(CC(F)(F)F)CC3)c2scc(C(=O)O)c2n1` [Compound 24, 7-[5-chloranyl-2-[2-[2-methyl-4-oxidany-lidene-6-[2,2,2-tris(fluoranyl)ethyl]-7,8-dihydro-5H-pyrido[4,3-d]pyrimidin-3-yl]ethoxy]phenyl]-5-methyl-thieno[3,2-b]pyridine-3-carboxylic acid; 2,2,2-tris(fluoranyl) acetic acid] were less than 10 µM and less than 0.4 µM. As to `Cc1cc(-c2cc(Cl)ccc2OCCn2c(C)nc3c(c2=O)CN(C)CC3)c2scc(C(=O)NS(C)(=O)=O)c2n1` [Compound 28, 7-[5-chloranyl-2-[2-[2,6-di(methyl)-4-oxidanylidene-7,8-dihydro-5H-pyrido[4,3-d]pyrimidin-3-yl]ethoxy]phenyl]-5-methyl-N-methylsulfonyl-thieno[3,2-b]pyridine-3-carboxamide; 2,2,2-tris(fluoranyl)acetic acid], the figures for the IC50 (in assay [1]; on human eIF4E protein) were less than 10 µM and less than 0.4 µM, respectively. For `Cc1cc(-c2cc(Cl)ccc2OCCn2c(C)nc3c(c2=O)CN(C)CC3)c2ccc(C(=O)O)n2n1` [Compound 26, 4-[5-chloranyl-2-[2-[2,6-di(methyl)-4-oxidanylidene-7,8-dihydro-5H-pyrido[4,3-d]pyrimidin-3-yl]ethoxy]phenyl]-2-methyl-pyrrolo[1,2-b]pyridazine-7-carboxylic acid] the same measures were less than 10 µM and less than 0.4 µM. For `Cc1nc2c(c(=O)n1CCOc1cnc(Cl)cc1-c1ccnc(C(=O)O)c1)CN(C)CC2` [Compound 17] the same measures were more than 20 µM and 0.4 to 10 µM. Turning to `Cc1cc(-c2cc(Cl)ccc2OCCn2c(C)nc3c(c2=O)CN(Cc2ccncc2)CC3)c2scc(C(=O)O)c2n1` [Compound 20], the IC50 in assay [1] is less than 10 µM; at human eIF4E protein, less than 0.4 µM. Regarding `Cc1nc2c(c(=O)n1CCOc1ccc(Cl)cc1-c1ccnn3c(C(=O)O)ccc13)CN(C)CC2` [Compound 14], the concentration for half-maximal inhibition (IC50) in assay [1] was less than 10 µM; at human eIF4E protein, less than 0.4 µM. For the compound `Cc1cc(-c2cc(Cl)ccc2OCCn2c(C)nc3c(c2=O)CN(c2cc(F)ccc2F)CC3)c2scc(C(=O)O)c2n1` [Compound 19], the IC50 is less than 10 µM in assay [1] and less than 0.4 µM on human eIF4E protein. Take `Cc1nc2c(c(=O)n1CCOc1ccc(Cl)cc1-c1cccc(C(=O)O)c1)CN(C1CCOCC1)CC2` [Compound 5]: the IC50 is more than 20 µM in assay [1] and 0.4 to 10 µM on human eIF4E protein.

Take `Cc1cc(-c2cc(Cl)ccc2OCCn2c(C)nc3c(c2=O)CN(C)CCO3)c2scc(C(=O)O)c2n1` [Compound 30, 7-[5-chloranyl-2-[2-[2,6-di(methyl)-4-oxidanylidene-7,8-dihydro-5H-pyrimido[5,4-f][1,4]oxazepin-3-yl]ethoxy]phenyl]-5-methyl-thieno[3,2-b]pyridine-3-carboxylic acid; 2,2,2-tris(fluorenyl) acetic acid]: the IC50 in assay [1] was less than 10 µM; at human eIF4E protein, less than 0.4 µM. As to `CN1CCc2ncn(CCOc3ccc(Cl)cc3-c3cccc(C(=O)O)c3)c(=O)c2C1` [Compound 3], at human eIF4E protein, the IC50 lay within 10 to 100 µM.

Regarding `Cc1nc2c(c(=O)n1CC#Cc1ccc(Cl)cc1-c1ccnc3c(C(=O)O)csc13)CN(C)CC2` [Compound 31], the IC50 in assay [1] was more than 20 µM; at human eIF4E protein, 10 to 100 µM.

In the case of `Cc1nc2c(c(=O)n1CCOc1ccc(Cl)cc1-c1cccc(C(=O)O)c1F)CN(C)CC2` [Compound 12], the results for the IC50 (in assay [1]; on human eIF4E protein) were more than 20 µM and less than 0.4 µM, respectively. With `CCN1CCc2nc(C)n(CCOc3ccc(Cl)cc3-c3cccc(C(=O)O)c3)c(=O)c2C1` [Compound 4], the IC50 in assay [1] is 10 to 20 µM; at human eIF4E protein, less than 0.4 µM. Taken in the same sequence, the figures for `Cc1nc2c(c(=O)n1CCOc1ccc(Cl)cc1-c1ccnc(-c3n[nH]c(=O)o3)c1)CN(C)CC2` [Compound 15] were more than 20 µM and 0.4 to 10 µM. As to `COCCN1CCc2nc(C)n(CCOc3ccc(Cl)cc3-c3cccc(C(=O)O)c3)c(=O)c2C1` [Compound 6], at human eIF4E protein, the half-maximal inhibitory concentration (IC50) was in the range of 0.4 to 10 µM.

In the case of `Cc1cc(-c2cc(Cl)ccc2OCCn2c(C)nc3c(c2=O)CN(C)CC3)c2ccc(C(=O)NS(C)(=O)=O)n2n1` [Compound 27, 4-[5-chloranyl-2-[2-[2,6-di(methyl)-4-oxidanylidene-7,8-dihydro-5H-pyrido[4,3-d]pyrimidin-3-yl]ethoxy]phenyl]-2-methyl-N-methylsulfonyl-pyrrolo[1,2-b]pyridazine-7-carboxamide], the IC50 in assay [1] is less than 10 µM; on human eIF4E protein, less than 0.4 µM. `Cc1nc2c(c(=O)n1CCOc1ccc(Cl)cc1-c1cccc(C(=O)O)c1)CN(C)CC2` [Compound 1]: the IC50 on human eIF4E protein is less than 0.4 µM. In the case of `Cc1cc(-c2cc(Cl)ccc2OCCn2c(C)nc3c(c2=O)CN(c2ccccc2F)CC3)c2scc(C(=O)O)c2n1` [Compound 18], the IC50 in assay [1] was less than 10 µM; at human eIF4E protein it was less than 0.4 µM. Regarding `COCCN1CCc2nc(C)n(CCOc3ccc(Cl)cc3-c3ccnc(C(=O)O)c3)c(=O)c2C1` [Compound 10], the IC50 in assay [1] was more than 20 µM; at human eIF4E protein, less than 0.4 µM. Turning to `Cc1cc(-c2cc(Cl)ccc2OCCn2c(C)nc3c(c2=O)CN(C)CC3)c2scc(C(=O)O)c2n1` [Compound 29, 7-[5-chloranyl-2-[2-[2,6-di(methyl)-4-oxidanylidene-7,8-dihydro-5H-pyrido[4,3-d]pyrimidin-3-yl]ethoxy]phenyl]-5-methyl-thieno[3,2-b]pyridine-3-carboxylic acid], the IC50 in assay [1] is less than 10 µM; at human eIF4E protein, less than 0.4 µM. Take `Cc1nc2c(c(=O)n1CCOc1ccc(Cl)cc1-c1ccc(C(=O)O)cc1)CN(C)CC2` [Compound 2]: at human eIF4E protein, the IC50 was 10 to 100 µM. Take `Cc1nc2c(c(=O)n1CCOc1ccc(Br)cc1-c1cccc(C(=O)O)c1)CN(C)CC2` [Compound 16]: the IC50 in assay [1] is more than 20 µM; on human eIF4E protein, less than 0.4 µM. Taken in the same sequence, the figures for `Cc1cc(-c2cc(Cl)ccc2OCCn2c(C)nc3c(c2=O)CN(c2ccn4ncnc4c2)CC3)c2scc(C(=O)O)c2n1` [Compound 22] were 10 to 20 µM and less than 0.4 µM.

Regarding `Cc1cc(-c2cc(Cl)ccc2OCCn2c(C)nc3c(c2=O)CN(CC(F)(F)F)CC3)c2scc(C(=O)NS(C)(=O)=O)c2n1` [Compound 25, 7-[5-chloranyl-2-[2-[2-methyl-4-oxidanylidene-6-[2,2,2-tris(fluoranyl)ethyl]-7,8-dihydro-5H-pyrdo[4,3-d]pyrimidin-3-yl]ethoxy]phenyl]-5-methyl-N-methylsulfonyl-thieno[3,2-b]pyridine-3-carboxamide; 2,2,2-tris(fluoranyl) acetic acid], the values for the IC50 (in assay [1]; at human eIF4E protein) were less than 10 µM and less than 0.4 µM, respectively.

As for `Cc1cc(-c2cc(Cl)ccc2OCCn2c(C)nc3c(c2=O)CN(c2ccnc4ccncc24)CC3)c2scc(C(=O)O)c2n1` [Compound 21], the IC50 in assay [1] is less than 10 µM; at human eIF4E protein it was less than 0.4 µM. With `Cc1nc2c(c(=O)n1CCOc1ccc(Cl)cc1-c1cccc(C(=O)O)c1)CN(C1COC1)CC2` [Compound 11], the IC50 is more than 20 µM in assay [1] and 10 to 100 µM on human eIF4E protein. For `Cc1nc2c(c(=O)n1CCOc1ccc(Cl)cc1-c1ccnc(C(=O)NS(C)(=O)=O)c1)CN(C)CC2` [Compound 13] the same measures were more than 20 µM and less than 0.4 µM.

On to `COc1cc(N2CCc3nc(C)n(CCOc4ccc(Cl)cc4-c4cc(C)nc5c(C(=O)O)csc45)c(=O)c3C2)ccn1` [Compound 23, 7-[5-chloranyl-2-[2-[6-(2-methoxy-4-pyridyl)-2-methyl-4-oxidanylidene-7,8-dihydro-5H-pyrido[4,3-d]pyrimidin-3-yl]ethoxy]phenyl]-5-methyl-thieno[3,2-b]pyridine-3-carboxylic acid; 2,2,2-tris(fluoranyl) acetic acid], for which the results for the IC50 (in assay [1]; on human eIF4E protein) were less than 10 µM and less than 0.4 µM, respectively. Turning to `Cc1nc2c(c(=O)n1CCOc1ccc(Cl)cc1-c1ccnc3c(C(=O)O)csc13)CN(C)CC2` [Compound 8], the IC50 in assay [1] is less than 10 µM; at human eIF4E protein, less than 0.4 µM.
